Consider seven molecules from ChEMBL document CHEMBL2034963, “Synthesis and pharmacological assessment of diversely substituted pyrazolo[3,4-b]quinoline, and benzo[b]pyrazolo[4,3-g][1,8]naphthyridine derivatives” (Eur J Med Chem, 2011).

Test [1] concerns the target T1, Acetylcholinesterase (Electrophorus electricus, UniProt O42275).
Description: Inhibition of electric eel AChE preincubated for 10 mins measured after 15 mins by Ellman's method
The next test concerns the target Cholinesterase (Equus caballus, UniProt P81908).
Test [2] relates to SH-SY5Y. The test is described as follows: Neuroprotective activity in rotenone/oligomycin-induced cell death in human SH-SY5Y cells assessed as LDH release at 10 nM pretreated for 1 hr before rotenone/oligomycin challenge measured after 24 hrs by spectrophotometric method (reference value: 13 %). Type of test: functional. A general note: LDH in the medium is a marker of cell lysis.

Test [3] addresses T1, Acetylcholinesterase. The test is described as follows: Mixed type inhibition of electric eel AChE using acetylthiocholine as substrate by Lineweaver-Burk plot analysis.
The test system of test [4] is SH-SY5Y. The test is described as follows: Neuroprotective activity in rotenone/oligomycin-induced cell death in human SH-SY5Y cells assessed as LDH release at 1 uM pretreated for 1 hr before rotenone/oligomycin challenge measured after 24 hrs by spectrophotometric method (reference value: 13 %). Format: functional.
The test system of test [5] is SH-SY5Y. The test is described as follows: Neuroprotective activity in okadaic acid-induced cell death in human SH-SY5Y cells at 1 uM after 24 hrs by MTT method. Type of test: functional, cell-based. On the technique in general: Tetrazolium dyes change colour on reduction, which living cells bring about.

The structures appear in SMILES notation. Calls of active or inactive are those of the source. No cut-off for these calls is given here.

T1 sequence (O42275 whole entry): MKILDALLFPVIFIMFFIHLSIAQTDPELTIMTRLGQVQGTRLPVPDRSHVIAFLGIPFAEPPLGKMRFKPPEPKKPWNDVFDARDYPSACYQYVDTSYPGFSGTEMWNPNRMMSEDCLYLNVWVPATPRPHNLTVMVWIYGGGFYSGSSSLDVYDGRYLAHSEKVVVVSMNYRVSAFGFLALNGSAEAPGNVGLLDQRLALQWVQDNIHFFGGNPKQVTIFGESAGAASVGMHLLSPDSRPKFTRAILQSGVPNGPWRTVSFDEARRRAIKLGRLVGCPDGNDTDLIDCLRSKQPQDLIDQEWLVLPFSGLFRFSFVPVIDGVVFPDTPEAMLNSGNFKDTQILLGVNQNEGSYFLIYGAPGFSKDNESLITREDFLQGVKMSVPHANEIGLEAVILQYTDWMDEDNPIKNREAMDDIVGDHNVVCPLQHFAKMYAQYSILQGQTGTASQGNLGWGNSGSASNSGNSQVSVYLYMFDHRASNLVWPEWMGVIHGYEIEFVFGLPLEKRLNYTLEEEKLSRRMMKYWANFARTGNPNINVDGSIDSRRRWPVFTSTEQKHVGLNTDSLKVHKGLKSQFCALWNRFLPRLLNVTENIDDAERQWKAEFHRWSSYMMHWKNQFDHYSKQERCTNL
Sequence of Cholinesterase (P81908 whole entry): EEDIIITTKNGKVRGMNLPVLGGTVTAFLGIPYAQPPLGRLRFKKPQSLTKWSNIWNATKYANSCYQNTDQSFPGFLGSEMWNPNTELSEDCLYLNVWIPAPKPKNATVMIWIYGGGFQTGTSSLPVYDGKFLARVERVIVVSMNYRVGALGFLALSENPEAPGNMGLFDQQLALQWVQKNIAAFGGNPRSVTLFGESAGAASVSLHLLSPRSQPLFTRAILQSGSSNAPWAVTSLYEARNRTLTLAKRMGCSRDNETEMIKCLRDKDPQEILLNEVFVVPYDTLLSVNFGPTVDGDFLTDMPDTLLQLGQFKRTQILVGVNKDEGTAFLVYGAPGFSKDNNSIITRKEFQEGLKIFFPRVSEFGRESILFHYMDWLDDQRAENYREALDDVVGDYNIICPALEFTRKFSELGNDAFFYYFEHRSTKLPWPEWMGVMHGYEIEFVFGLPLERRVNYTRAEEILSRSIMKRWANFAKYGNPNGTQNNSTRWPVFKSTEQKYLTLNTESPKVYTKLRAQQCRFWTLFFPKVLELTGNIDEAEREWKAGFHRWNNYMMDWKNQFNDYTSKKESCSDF

The term IC50 denotes the concentration at which inhibition is half-maximal. As for `Cn1nc(C#N)c2c(N)c3c(nc21)CCCC3`, the IC50 against Acetylcholinesterase [1] was 1.7 µM; at Cholinesterase, 6.3 µM.

Regarding `Cn1nc2nc3c(c(N)c2c1C#N)CCCC3`, the values for the IC50 against Acetylcholinesterase [1] and on Cholinesterase were 0.57 µM and 100 µM, respectively.

Regarding `Cn1nc(C(N)=O)c2c(NCCCCCCOc3ccccc3)c3c(nc21)CCCC3`, the 50% inhibitory concentration (IC50) on Acetylcholinesterase [1] was 9.3 µM; on Cholinesterase, greater than 100 µM.

Take `COc1ccc2[nH]cc(CCNC(C)=O)c2c1` [MELATONIN]: in the test on SH-SY5Y [2], the Activity was 48%.

One may read the Ki as a measure of affinity in units of concentration, obtained from inhibition or displacement. A higher Ki goes with lower affinity. Consider `CC(=O)Nc1nn(C)c2nc3nc4c(c(N)c3cc12)CCCC4`, for which, at Acetylcholinesterase [3], the affinity, expressed as Ki, was 0.155 µM. Besides, the Activity in the test on SH-SY5Y [4] was determined as 48%. Also, the outcome in the test with SH-SY5Y [5] was inactive. Moreover, the IC50 at Acetylcholinesterase [1] came out at 0.069 µM; against Cholinesterase it was 6.3 µM.

Consider `CC(=O)Nc1nn(C)c2nc3nc4c(c(N)c3c(-c3ccccc3)c12)CCCC4`, for which the IC50 against Acetylcholinesterase [1] worked out at 0.23 µM; against Cholinesterase, 9 µM.

Take `Cn1nc2nc3c(c(N)c2c1C(N)=O)CCCC3`: the IC50 at Acetylcholinesterase [1] was determined as 0.6 µM; against Cholinesterase it was 5.4 µM.
